Experimental data reported in patent US8017612B2, “Piperazine compound and use thereof as a HCV polymerase inhibitor” (priority 2006, dated 2011).

Assays:
[1] = target: T1, HCV polymerase (NS5B) type 1a (Hepatitis C virus genotype 1a, UniProt P26664); experiment: Assay of enzyme (HCV polymerase) inhibitory activity, type 1a enzyme; assay type: biochemical, HCV type 1a (cloned from the blood of patients)
T1 construct: made in house; host or cells: Escherichia coli (by the 'similar method' of the 1b enzyme)
Summary of the method: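 IC50 values derive from radioactivity of newly synthesized RNA with versus without test compound. The enzyme was C-terminally truncated type 1a NS5B, 1.5 μg/ml, run 60 min at 25° C with 3H-UTP-labelled nucleotides.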

[2] = target: T2, HCV polymerase (NS5B) type 1b (Hepatitis C virus genotype 1b, UniProt P26663); experiment: Assay of enzyme (HCV polymerase) inhibitory activity, type 1b enzyme; assay type: biochemical, HCV BK strain (type 1b)
T2 construct: a region encoding NS5B (J Virol 1991 March, 65(3), 1105-13, 544 amino acids after deletion of 47 amino acids on the C-terminal); 6xHis (C); made in house; host or cells: Escherichia coli
Summary of the method: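 Polymerase activity was followed as radiolabelled UTP incorporation by E. coli-expressed, His-tagged NS5B of HCV type 1b lacking its last 47 residues. Conditions: 2 μM UTP, 50 μM other NTPs, Mg2+ buffer at pH 7.5, 25 °C for 60 min. Inhibition relative to compound-free reactions gave IC50.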

[3] = HCV polymerase inhibitory activity (IC50), 1a, type 1a enzyme 1.5 μg/ml, 25° C., 60 min
[4] = HCV polymerase inhibitory activity (IC50), 1b, type 1b enzyme 0.5 μg/ml, 25° C., 60 min
[5] = HCV polymerase inhibitory activity IC50, 1a, type 1a enzyme
[6] = HCV polymerase inhibitory activity IC50, 1b, type 1b enzyme

Compound	IC50 [1, 3] [nM]	IC50 [2, 4] [nM]	IC50 [1, 5] [nM]	IC50 [2, 6] [nM]
COCc1ccc(CNC(=O)[C@H]2CN(c3nc(C)c(C(=O)O)s3)CCN2S(=O)(=O)c2ccc(OC(F)(F)F)cc2)cc1 [Example 451, 2-[(R)-3-(4-methoxymethyl-benzylcarbamoyl)-4-(4-trifluoromethoxy-benzenesulfonyl)-piperazin-1-yl]-4-methyl-thiazole-5-carboxylic acid]	< 100	< 100	–	–
COc1ccc(CNC(=O)[C@H]2CN(C(C)=O)CCN2S(=O)(=O)c2ccc(OC(F)(F)F)cc2)cc1O [Example 645, (R)-4-acetyl-1-(4-trifluoromethoxy-benzenesulfonyl)-piperazine-2-carboxylic acid 3-hydroxy-4-methoxy-benzylamide]	> 1000	> 1000	–	–
CCC(F)(F)c1ccc(CNC(=O)[C@H]2CN(C(=O)C3CC3)CCN2S(=O)(=O)c2ccc(OC(F)(F)F)cc2)cc1 [Example 610, (R)-4-cyclopropanecarbonyl-1-(4-trifluoromethoxy-benzenesulfonyl)-piperazine-2-carboxylic acid 4-(1,1-difluoro-propyl)-benzylamide]	100 to 1000	100 to 1000	–	–
CCCc1ccc(CNC(=O)[C@H]2CN(c3cnc(C(=O)OC)c(N)n3)CCN2S(=O)(=O)c2ccc(OC(F)(F)F)cc2)cc1 [Example 507, (R)-6′-amino-3-(4-propyl-benzylcarbamoyl)-4-(4-trifluoromethoxy-benzenesulfonyl)-3,4,5,6-tetrahydro-2H-[1,2′]bipyrazinyl-5′-carboxylic acid methyl ester]	< 100	< 100	–	–
Cc1nc(N2CCN(S(=O)(=O)c3ccc(C(F)(F)F)cc3)[C@@H](C(=O)NCc3ccc(N(C)C)cc3)C2)sc1C(=O)O [Example 343, 2-[(R)-3-(4-dimethylamino-benzylcarbamoyl)-4-(4-trifluoromethyl-benzenesulfonyl)-piperazin-1-yl]-4-methyl-thiazole-5-carboxylic acid]	< 100	< 100	–	–
Cn1ncc2sc(N3CCN(S(=O)(=O)c4ccc(OC(F)(F)F)cc4)[C@@H](C(=O)NCc4ccc(OC(F)(F)F)cc4)C3)nc2c1=O [Example 957, (R)-4-(5-methyl-4-oxo-4,5-dihydro-thiazolo[4,5-d]pyridazin-2-yl)-1-(4-trifluoromethoxy-benzenesulfonyl)-piperazine-2-carboxylic acid 4-trifluoromethoxy-benzylamide]	–	–	< 100	< 100
CCN(C)c1ccc(CNC(=O)[C@H]2CN(c3nc4cn[nH]c(=O)c4s3)CCN2S(=O)(=O)c2ccc(OC(F)(F)F)cc2)cc1 [Example 883, (R)-4-(7-oxo-6,7-dihydro-thiazolo[4,5-d]pyridazin-2-yl)-1-(4-trifluoromethoxy-benzenesulfonyl)-piperazine-2-carboxylic acid 4-(ethyl-methyl-amino)-benzylamide]	–	–	< 100	< 100
COCCn1ncc2sc(N3CCN(S(=O)(=O)c4ccc(OC(F)(F)F)cc4)[C@@H](C(=O)NCc4ccc(OC(F)(F)F)cc4)C3)nc2c1=O [Example 1071, (R)-4-[5-(2-methoxy-ethyl)-4-oxo-4,5-dihydro-thiazolo[4,5-d]pyridazin-2-yl]-1-(4-trifluoromethoxy-benzenesulfonyl)-piperazine-2-carboxylic acid 4-trifluoromethoxy-benzylamide]	–	–	< 100	< 100
CCC(F)(F)c1ccc(CNC(=O)[C@H]2CN(C(=O)CNc3cccnc3)CCN2S(=O)(=O)c2ccc(OC(F)(F)F)cc2)cc1 [Example 733, (R)-4-[2-(pyridin-3-ylamino)-acetyl]-1-(4-trifluoromethoxy-benzenesulfonyl)-piperazine-2-carboxylic acid 4-(1,1-difluoro-propyl)-benzylamide]	–	–	100 to 1000	100 to 1000
CCc1ccc(CNC(=O)[C@H]2CN(C(C)=O)CCN2S(=O)(=O)c2ccc(C(C)C)cc2)cc1 [Example 232, (R)-4-acetyl-1-(4-isopropyl-benzenesulfonyl)-piperazine-2-carboxylic acid 4-ethyl-benzylamide]	100 to 1000	100 to 1000	–	–
CC(=O)N1CCN(S(=O)(=O)c2ccc(C(C)C)cc2)C(C(=O)NCc2ccc(N3CCN(C)CC3)cc2)C1 (centres unmarked) [Example 81, 4-acetyl-1-(4-isopropyl-benzenesulfonyl)-piperazine-2-carboxylic acid 4-(4-methyl-piperazin-1-yl)-benzylamide]	> 1000	> 1000	–	–
CCCc1ccc(CNC(=O)[C@H]2CN(c3nc4c(C(=O)OCC)cncc4s3)CCN2S(=O)(=O)c2ccc(CC)cc2)cc1 [Example 1064, 2-[(R)-4-(4-ethyl-benzenesulfonyl)-3-(4-propyl-benzylcarbamoyl)-piperazin-1-yl]-thiazolo[5,4-c]pyridine-7-carboxylic acid ethyl ester]	–	–	< 100	< 100
Cc1nncc2sc(N3CCN(S(=O)(=O)c4ccc(OC(F)(F)F)cc4)[C@@H](C(=O)NCc4ccc(OC(F)(F)F)cc4)C3)nc12 [Example 917, (R)-4-(4-methyl-thiazolo[4,5-d]pyridazin-2-yl)-1-(4-trifluoromethoxy-benzenesulfonyl)-piperazine-2-carboxylic acid 4-trifluoromethoxy-benzylamide]	–	–	< 100	< 100
CC(=O)N1CCN(S(=O)(=O)c2ccc(I)cc2)C(C(=O)NCc2ccc(N(C)C)cc2)C1 (centres unmarked) [Example 85, 4-acetyl-1-(4-iodo-benzenesulfonyl)-piperazine-2-carboxylic acid 4-dimethylamino-benzylamide]	100 to 1000	> 1000	–	–
COc1ccc(S(=O)(=O)N2CCN(C(C)=O)C[C@@H]2C(=O)NCc2ccc(C(C)C)cc2)cc1CC(=O)O [Example 221, {5-[(R)-4-acetyl-2-(4-isopropyl-benzylcarbamoyl)-piperazine-1-sulfonyl]-2-methoxy-phenyl}-acetic acid]	> 1000	> 1000	–	–
CCCc1ccc(CNC(=O)[C@H]2CN(c3cnc4cncnc4n3)CCN2S(=O)(=O)c2ccc(OC(F)(F)F)cc2)cc1O [Example 723, (R)-4-pteridin-7-yl-1-(4-trifluoromethoxy-benzenesulfonyl)-piperazine-2-carboxylic acid 3-hydroxy-4-propyl-benzylamide]	–	–	100 to 1000	< 100
Cc1nc(C(N)=O)c2sc(N3CCN(S(=O)(=O)c4ccc(OC(F)(F)F)cc4)[C@@H](C(=O)NCc4ccc(OC(F)(F)F)cc4)C3)nc2n1 [Example 1029, 5-methyl-2-[(R)-4-(4-trifluoromethoxy-benzenesulfonyl)-3-(4-trifluoromethoxy-benzylcarbamoyl)-piperazin-1-yl]-thiazolo[4,5-d]pyrimidine-7-carboxylic acid amide]	–	–	100 to 1000	< 100
CC(=O)N1CCN(S(=O)(=O)c2ccc(C(C)C)cc2)[C@@H](C(=O)NCCc2ccccc2Cl)C1 [Example 149, (R)-4-acetyl-1-(4-isopropyl-benzenesulfonyl)-piperazine-2-carboxylic acid [2-(2-chloro-phenyl)-ethyl]-amide]	> 1000	> 1000	–	–
O=C(NCc1ccc(OC(F)F)cc1F)[C@H]1CN(c2nc3nc(C4CC4)ncc3s2)CCN1S(=O)(=O)c1ccc(OC(F)(F)F)cc1 [Example 1045, (R)-4-(5-cyclopropyl-thiazolo[4,5-d]pyrimidin-2-yl)-1-(4-trifluoromethoxy-benzenesulfonyl)-piperazine-2-carboxylic acid 4-difluoromethoxy-2-fluoro-benzylamide]	–	–	< 100	< 100
